{
  "source": "patent US20210254014A1",
  "about": "“GROWTH INHIBITOR” (Kyoto University, priority 2018, published 2021)",
  "key": {"grafts": {"test_system": "grafts", "assay": "Autopsy findings and immunohistological staining of grafts excised 5 weeks after transplantation", "assay_type": "in vivo, mice", "conditions": "cell population treated with 1 μM for 12 days, compared with untreated cell population", "excerpt": "(§1) The insulin-producing cell population obtained by culture in the medium for induction of differentiation containing CAS192705-79-6 in the preceding section (1) or an insulin-producing cell population obtained by culture in a medium for induction of differentiation free from CAS192705-79-6 as a comparative example was transplanted beneath the capsule of the kidney using immunodeficient NOD/SCID mice having streptozotocin-induced insulin-deficient diabetes mellitus. For follow-up after the transplantation, human C-peptide concentrations in blood and blood glucose levels were measured. The grafts were excised 5 weeks after the transplantation.\nThe excised grafts were fixed and dehydrated, and then, frozen sections were prepared and subjected to immunohistological staining in order to evaluate unintended cells. The cells of interest that could be expected to maturate into pancreatic islet cells in vivo were evaluated using insulin positivity (and NKX6.1 positivity) or glucagon positivity as an indicator, and unintended cells having the possibility of adversely affecting long-term graft survival of the cells of interest were evaluated using Ki67 positivity as an indicator."}, "Ki67-positive cells [1]": {"test_system": "Ki67-positive cells", "assay": "Ki67-positive cells by flow cytometry in the insulin-producing cell population obtained by treating an endocrine progenitor cell population for 12 days (Example 1)", "assay_type": "cell-based, human", "conditions": "1 μM, mean ± standard deviation of five experiments, absent control 10.78 ± 4.09%", "method": "The induction of differentiation of the endocrine progenitor cell population into an insulin-producing cell population was carried out according to the above step 6) or the previous report (Nature Biotechnology 2014; 32: 1121-1133).\n(§2) The endocrine progenitor cell population obtained by the induction of differentiation from iPS cells were cultured for 12 days in a medium for induction of differentiation (Improved MEM/1% B27/Penicillin Streptomycin) containing differentiation factors (ALK5 inhibitor II, T3, LDN, γ-secretase inhibitor RO, and ascorbic acid) and an FGF receptor 1 inhibitor (CAS192705-79-6) to obtain an insulin-producing cell population. The number of Ki67-positive cells in the obtained cell population was evaluated by flow cytometry."}, "Ki67-positive cells [2]": {"test_system": "Ki67-positive cells", "assay": "Ki67-positive cells by flow cytometry, timing of treatment during insulin-producing cell production (Example 2)", "assay_type": "cell-based", "conditions": "1 μM, mean ± SD of three experiments, absent control 7.57 ± 1.05%", "method": "as §2, with “1) An” for “The”, “11” for “12”, “population.” for “population. The number of Ki67-positive cells in the obtained cell population was evaluated by flow cytometry.”\n(§3) 2) An endocrine progenitor cell population obtained by the induction of differentiation from iPS cells were cultured for 4 days in a medium for induction of differentiation (Improved MEM/1% B27/Penicillin Streptomycin) containing differentiation factors (ALK5 inhibitor II, T3, LDN, γ-secretase inhibitor RO, and ascorbic acid) and thereby induced to differentiate into an insulin-producing cell population. Subsequently, an FGF receptor 1 inhibitor (CAS192705-79-6, 1 μM) was added to a medium for induction of differentiation (Improved MEM/1% B27/Penicillin Streptomycin) containing differentiation factors (ALK5 inhibitor II, T3, LDN, γ-secretase inhibitor RO, and ascorbic acid), and the cells were cultured therein for 7 days.\nas §3, with “3) An” for “2) An”, “for 7” for “for 4”, “for 4” for “for 7”, “days. […]” for “days.”\nThe number of Ki67-positive cells in the cell population obtained by each of the above methods 1), 2), and 3) was counted by flow cytometry to determine the proportion of Ki67-positive cells in each cell population."}, "[3]": {"test_system": "immunodeficient NOD/SCID mice having streptozotocin-induced insulin-deficient diabetes mellitus", "assay": "Transplantation of the FGF receptor 1 inhibitor-treated insulin-producing cell population beneath the kidney capsule; human C-peptide in blood and blood glucose", "assay_type": "in vivo", "conditions": "cell population treated with 1 μM for 12 days", "method": "In the description below, the preparation of mice and the transplantation of cells were performed in accordance with known methods.\nas §1, with “The grafts were excised 5 weeks after the transplantation.” left out"}, "rat myoblasts [4]": {"test_system": "rat myoblasts", "conditions": "cited from earlier work"}, "[5]": {"test_system": "human placental blood vessels", "conditions": "cited from earlier work"}, "Ki67-positive cells [6]": {"test_system": "Ki67-positive cells", "assay": "Ki67-positive cells by flow cytometry after 4 days of treatment with FGFR1 inhibitors at three concentrations (Example 3)", "assay_type": "cell-based", "method": "The number of Ki67-positive cells in the obtained cell population was evaluated by flow cytometry."}, "[7]": {"test_system": "insulin-positive (and NKX6.1-positive) cells", "assay": "Insulin-positive (and NKX6.1-positive) cells by flow cytometry, timing of treatment (Example 2)", "assay_type": "cell-based", "conditions": "1 μM, relative value, untreated control defined as 100%", "method": "as §2, with “1) An” for “The”, “11” for “12”, “population.” for “population. The number of Ki67-positive cells in the obtained cell population was evaluated by flow cytometry.”\nas §3\n3) An endocrine progenitor cell population obtained by the induction of differentiation from iPS cells were cultured for 7 days in a medium for induction of differentiation (Improved MEM/1% B27/Penicillin Streptomycin) containing differentiation factors (ALK5 inhibitor II, T3, LDN, γ-secretase inhibitor RO, and ascorbic acid) and thereby induced to differentiate into an insulin-producing cell population. […]\nThe number of insulin-positive (and NKX6.1-positive) cells in the cell population obtained by each of the above methods 1), 2), and 3) was counted by flow cytometry. The proportion of insulin-positive (and NKX6.1-positive) cells in each method was calculated as a relative value when the number of insulin-positive (and NKX6.1-positive) cells in the control cell population obtained by the above method 4) was defined as 100%."}, "rat myoblasts [8]": {"test_system": "rat myoblasts", "conditions": "cited from earlier work", "remark": "listed apart in the source"}, "[9]": {"test_system": "endocrine progenitor cells derived from human iPS cells", "conditions": "cited from earlier work"}, "[10]": {"conditions": "Table 4, 0.3 μM, absent control 4.13%"}, "[11]": {"conditions": "Table 4, 1 μM, absent control 4.13%"}},
  "data": [
    {"smiles": "COc1cc(OC)cc(-c2cc3cnc(N)nc3nc2NC(=O)NC(C)(C)C)c1", "note": "[CAS192705-79-6, 1-[2-amino-6-(3,5-dimethoxyphenyl)-pyrido(2,3-d)pyrimidin-7-yl]-3-tert-butylurea]", "values": [
      {"measurement": "Bloatedness of the grafts", "setting": "grafts", "result": "drastic inhibition of bloatedness of the grafts"},
      {"measurement": "Content percentage of Ki67-positive cells (before transplantation)", "setting": "Ki67-positive cells [1]", "result": "0.98 ± 0.29", "unit": "%"},
      {"measurement": "Proportion of Ki67-positive cells", "setting": "Ki67-positive cells [2]; for last 4 days", "result": "0.57 ± 0.15", "unit": "%"},
      {"measurement": "Proportion of Ki67-positive cells", "setting": "Ki67-positive cells [2]; for last 7 days", "result": "0.47 ± 0.15", "unit": "%"},
      {"measurement": "Proportion of Ki67-positive cells", "setting": "Ki67-positive cells [2]; from start (11 days)", "result": "0.57 ± 0.35", "unit": "%"},
      {"measurement": "Human C-peptide concentration in blood 4 months after transplantation", "setting": "[3]; transplanted beneath the kidney capsule, untreated cells 1440 ± 573", "result": "1486 ± 305", "unit": "pM"},
      {"measurement": "Blood glucose level 4 months after transplantation", "setting": "[3]; 4 months later, untreated cells 85 ± 16", "result": "86 ± 22", "unit": "mg/dL"},
      {"measurement": "Blood glucose level at time of transplantation", "setting": "[3]; at time of transplantation (baseline)", "result": "516 ± 33", "unit": "mg/dL"},
      {"measurement": "Cell proliferation caused by bFGF stimulation", "setting": "rat myoblasts [4]", "result": "inhibit cell proliferation caused by bFGF stimulation"},
      {"measurement": "Elongation of microvessels", "setting": "[5]", "result": "inhibit the elongation of microvessels"},
      {"measurement": "Proportion of Ki67-positive cells (%)", "setting": "Ki67-positive cells [6]; Table 4, 0.1 μM, absent control 4.13%", "result": "2.15%;"},
      {"measurement": "Proportion of Ki67-positive cells (%)", "setting": "Ki67-positive cells [6]; [10]", "result": "0.99%;"},
      {"measurement": "Proportion of Ki67-positive cells (%)", "setting": "Ki67-positive cells [6]; [11]", "result": "0.7%;"},
      {"measurement": "Proportion of insulin-positive (and NKX6.1-positive) cells", "setting": "[7]; for last 4 days", "result": "91 ± 16", "unit": "%"},
      {"measurement": "Proportion of insulin-positive (and NKX6.1-positive) cells", "setting": "[7]; for last 7 days", "result": "88 ± 13", "unit": "%"},
      {"measurement": "Proportion of insulin-positive (and NKX6.1-positive) cells", "setting": "[7]; from start (11 days)", "result": "45 ± 15", "unit": "%"},
      {"measurement": "Cell proliferation caused by PDGE stimulation", "setting": "rat myoblasts [8]", "result": "not inhibit cell proliferation caused by PDGE stimulation"},
      {"measurement": "Differentiation of endocrine progenitor cells", "setting": "[9]", "result": "can be promoted"}
    ]},
    {"smiles": "COCCCOc1ccnc(C[S+]([O-])c2nc3ccccc3[nH]2)c1C", "note": "(stereo not drawn) [E-3810]", "values": [
      {"measurement": "Proportion of Ki67-positive cells (%)", "setting": "Ki67-positive cells [6]; [10]", "result": "2.74%;"},
      {"measurement": "Proportion of Ki67-positive cells (%)", "setting": "Ki67-positive cells [6]; [11]", "result": "1.51%;"},
      {"measurement": "Proportion of Ki67-positive cells (%)", "setting": "Ki67-positive cells [6]; Table 4, 10 μM, absent control 4.13%", "result": "0.67%;"}
    ]},
    {"smiles": "CCN(CC)CCCCNc1ncc2cc(-c3cc(OC)cc(OC)c3)c(NC(=O)NC(C)(C)C)nc2n1", "note": "[PD-173074]", "values": [
      {"measurement": "Proportion of Ki67-positive cells (%)", "setting": "Ki67-positive cells [6]; Table 5, 0.1 μM, absent control 2.7%", "result": "0.7%;"},
      {"measurement": "Proportion of Ki67-positive cells (%)", "setting": "Ki67-positive cells [6]; Table 5, 1 μM, absent control 2.7%", "result": "0.7%;"},
      {"measurement": "Proportion of Ki67-positive cells (%)", "setting": "Ki67-positive cells [6]; Table 5, 5 μM, absent control 2.7%", "result": "0.5%;"}
    ]}
  ]
}
